Here are results for three compounds from patent US8778884B2, “Glioprotectant peptide for use in the treatment of amyotrophic lateral sclerosis (ALS) and methods related thereto” (Fondazione Salvatore Maugeri Clinica del Lavora e Della …, priority 2011, dated 2014).

Where “and” joins values, the source holds several entries; their conditions need not be identical. Equal entries are not always repeated. Entries after “also recorded” stand apart in the source; their conditions may differ.

In one data set the test system is astrocyte cultures. The data set can be described thus: astrocyte toxicity assay, staurosporine challenge (nuclear condensation). Format: cell-based, mouse. As for the experimental part:
(§1) Pharmacological treatments in vitro. To assess the ability of TAT-BH4 to penetrate into cells, astrocytes (8×10^4 cells/well) were plated in 24-well plates containing glass coverslips. Cultures were treated with 10 μg/ml Hoechst 33342 (Sigma) for 15 min., quickly washed and incubated with 0.5 μM TAT-BH4 (TAT^48-57 conjugated to the BH4 domain of Bcl-XL) either unconjugated or conjugated with 5(6)-carboxyfluorescein (FAM, Primm srl) for 30 min. Peptides in excess were subsequently removed, cells were washed and immediately fixed (methanol:acetone 1:1 for 10 min.) or maintained in culture for 24 hrs and then fixed. The presence of the peptides inside the cells was evaluated by a digital camera (DFC 310 FX, Leica Microsystem) mounted on a DM5000 B microscope (Leica Microsystem) and analysed by Leica Application Suite 3.5.0 software. […]
(§2) Astrocyte toxicity assays. The toxic effect of DHPG or staurosporine on cultured astrocytes was determined by double staining with the fluorescent nuclear dye Hoechst 33342 and anti-active caspase-3 immunocytochemistry using a rabbit polyclonal antibody (1:50, Cell Signalling Technology). The number of astrocytes showing condensed nuclei and activated caspase-3 24 hrs after the pharmacological challenge was counted by two independent operators in a blind manner. […]

In a further data set the test system is wild-type astrocytes. In words: single-cell Fluo4 [Ca^2+]i imaging in wild-type astrocytes. Format: cell-based, mouse. As for the experimental part:
(§3) Astrocytes cultures. Primary astrocyte cultures (>99% GFAP-positive) were prepared from the spinal cord of newborn mice (hSOD1^G93A or wild-type littermates). Once the cultures reached the confluence, they were replated at the optimal density either in 24-well plates or 35-mm Petri dishes containing glass coverslips and maintained in Minimal Essential Medium (MEM, GIBCO) supplemented with 10% foetal bovine serum (FBS, Sigma-Aldrich).
(§4) [Ca^2+]i imaging. ASTROCYTES were plated (2.5×10^4 cells/35 mm Petri dish) on glass coverslips and used 2-3 days later as already shown. Before imaging, cells were loaded with 5 μM Fluo4-AM (Molecular Probes) for 15-20 min. at 37° C. in a HEPES-KRH buffer containing (in mM): NaCl 116, KCl 4, MgCl2 1, CaCl2 1.8, HEPES-acid 10, glucose 25 (pH 7.4) and then allowed to de-esterify for 10 min. After several washes, coverslips were mounted in an open perfusion micro-incubator (PDMI-2, Harvard Apparatus) set at 37° C. on the stage of the optical recording microscope. During experiments, cells were continuously perfused with HEPES-KRH (1 ml/min), and 100 μM DHPG was applied via a software-controlled micro-perfusion fast-step device (100 μl/min, Warner Instrument Corp.) A Zeiss Axiovert 200 inverted fluorescence microscope was modified to allow EPI illumination (Visitron Systems). Fluo4 fluorescence was recorded through a 63× or 40× objectives lens (Zeiss, Neofluar 63×/1.25 Oil, Neofluar 40×/1.3 Oil) and directed through a Zeiss filter set 10 (BP 450-490; BP 515-565) at 200- or 400 ms of intervals by imaging with excitation light at 488 nm generated by a polychromator illumination system (Visichrome, Visitron). Video images, digitized with MetaFluor, were analyzed with MetaMorph software (Universal Imaging). Temporal dynamics of Fluo4 fluorescence have been expressed as background-subtracted ΔF/F0(%), where F0 represents the fluorescence level of the cells before stimulation, and F represents the change in fluorescence occurring during the stimulus.
(§5) [Ca^2+]i imaging. The measurements of [Ca^2+]i were performed as described in Example 2. Briefly, cells were loaded with 5 μM Fluo4-AM and then allowed to de-esterify for 10 min.
(§6) After several washes, coverslips were mounted in an open perfusion micro-incubator set at 37° C. on the stage of the optical recording microscope. During experiments, cells were continuously perfused with HEPES-KRH (1 ml/min), and 0.5 μM TAT-BH4 was applied 30 min. before adding 100 μM DHPG via a software-controlled micro-perfusion fast-step device (100 μl/min, Warner Instrument Corp.).

The subject of data set [1] is hSOD1^G93A-expressing astrocytes. The data set can be described thus: single-cell Fluo4 [Ca^2+]i imaging in hSOD1^G93A-expressing astrocytes. Format: cell-based, mouse. As for the experimental part: as §3, §4, §5, §6
For data set [2] the test system is unchanged. In words: cytochrome c release (co-localization of Cyt c with SOD2). Format: cell-based, mouse. The conditions noted are these: DHPG 100 μM. As for the experimental part:
Pharmacological treatments in vitro. To assess the ability of TAT-BH4 to penetrate into cells, astrocytes (8×10^4 cells/well) were plated in 24-well plates containing glass coverslips. Cultures were treated with 10 μg/ml Hoechst 33342 (Sigma) for 15 min., quickly washed and incubated with 0.5 μM TAT-BH4 (TAT^48-57 conjugated to the BH4 domain of Bcl-XL) either unconjugated or conjugated with 5(6)-carboxyfluorescein (FAM, Primm srl) for 30 min. Peptides in excess were subsequently removed, cells were washed and immediately fixed (methanol:acetone 1:1 for 10 min.) or maintained in culture for 24 hrs and then fixed. The presence of the peptides inside the cells was evaluated by a digital camera (DFC 310 FX, Leica Microsystem) mounted on a DM5000 B microscope (Leica Microsystem) and analysed by Leica Application Suite 3.5.0 software. To test the protective efficacy of TAT-BH4, astrocytes in culture were pre-exposed to different concentrations of the peptide (0.1 and/or 0.5 μM, 30 min.), washed and then treated with DHPG (100 μM, 30 min., Tocris Cookson Ltd.) or staurosporine (1 μM, 6 hrs, Sigma-Aldrich). After removal of DHPG, astrocytes were allowed to recover at 37° C. for 24 hrs.
Cytochrome c release. […] Cytochrome c release from mitochondria was determined by its co-localization with the mitochondrial protein SOD2 using JACoP plug-in ImageJ. […]

Data set [3] shares this test system. The data set can be described thus: astrocyte toxicity assay, DHPG challenge (nuclear condensation, active caspase-3). Format: cell-based, mouse. As for the experimental part: as §1, §2
Data set [4] relates to hSOD1^G93A mice. The data set can be described thus: chronic treatment of hSOD1^G93A mice: disease onset, rotarod, survival. Format: in vivo, mouse. The conditions noted are these: 5 mg/kg i.p. daily from age 40 days. As for the experimental part: Transgenic mice. Transgenic mice expressing human SOD1^G93A (B6SJL-TgN(SOD1-G93A)1Gur were purchased from The Jackson Laboratories. The colonies were maintained by breeding hemizygote males to wild-type C57BI6/SJL F1 hybrid females. Offspring were genotyped and used for subsequent studies. Animal procedures were approved by the Italian Ministry of Health.
(§7) Pharmacological treatment in vivo. hSOD1^G93A mice were administrated daily 5 mg/kg TAT-BH4 peptide in PBS containing 10% glycerol or vehicle alone (PBS plus 10% glycerol) intraperitoneally starting at the age of 40 days (n=14 mice for each condition). Mice were thereafter kept under daily observation and weighted twice a week. Age of disease onset was retrospectively determined as the time when mice reached the peak in the body weight. Motor performance was assessed twice a week by rotarod test starting at the age of 50 days. Briefly, animals were place on an accelerating rod (Ugo Basile) and the time each mouse remained on the rod was recorded. The average of three independent trials per session was used for further analysis of the data. End stage was defined as the time in which animals were unable to right themselves within 30 seconds when placed on their side.
Statistics. Data are represented as mean±s.e.m. and statistical significance is verified using GraphPad Prism software. Unpaired or paired 2-tailed t-test was used for comparisons between two groups; one-way or two-way analysis of variance (ANOVA) followed by Bonferroni post-hoc test was used for comparisons of multiple groups; repeated measures two-way ANOVA was used for behavioral test; the Logrank test was used for disease onset and survival analysis.

In data set [5] the test system is hSOD1^G93A mice. In words: histopathological analysis of spinal cord of treated hSOD1^G93A mice. Format: in vivo, mouse. The following applies: 5 mg/kg i.p. daily.
Text: Tissue preparation and immunohistological analysis. For mouse tissue preparation, the spine was taken and immersed in 4% buffered paraformaldehyde for 24 hrs; spinal cord was extracted, the lumbar tract was removed and either paraffin embedded or cryoprotected in 30% sucrose before freezing. For human tissue preparation, spinal cord was removed and 0.5 cm thick slices were taken from the cervical (C7), thoracic (T4 and T8) and lumbar (L1) levels. Slices were fixed in 10% buffered formalin and embedded in paraffin. Mouse or human spinal cords were sectioned at 5-10 μm and used to perform different immunostainings. On selected sections, the following primary antibodies were used: GFAP (mouse monoclonal antibody, 1:50, Dako), CD11b (rat monoclonal antibody, 1:500, Serotec), mGluR5 (rabbit polyclonal antibody, 1:100, MBL International Corporation); active caspase-3 (rabbit polyclonal antibody, 1:50, Cell Signalling Technology). For active caspase-3 immunostaining, a Tyramide Amplification System kit was used (Perkin Elmer, Inc.). For histopathological analysis, serial sections were either immunostained for GFAP/active caspase-3 or treated with 0.5% cresyl violet (Sigma Aldrich) to detect motor neuron Nissl substance. GFAP/active caspase-3 positive astrocytes and motor neurons were counted for a total of 9 disectors using an unbiased stereologic physical disector technique. Z-axis image stacks (z-step size: 0.5 μm) were collected to generate three-dimensional data sets of spinal cord sections on an MRC 1024 Bio-Rad confocal microscope with a 63× Plan Neofluar NA1,25 oil-immersion objective in condition of optimal iris diameter as defined by LaserSharp 2000 software. Quantitative analysis of punctuate mGluR5, GFAP or CD11 b stainings was performed on confocal acquired images (1024×1024 pixels) of the spinal cord ventral horns from both wild-type and SOD1^G93A animals using ImageJ software (National Institutes of Health). After establishing an intensity threshold, the software calculated the percentage of area occupied by mGluR5, GFAP or CD11b staining by dividing the area of immunopositivity by the total area.
as §7

[6] abbreviates: TAT-BH4 0.5 μM 30 min before DHPG 100 μM.
Setting [7] is: TAT-BH4 0.5 μM 30 min before STS 1 μM.

On to `CN[C@@H]1C[C@H]2O[C@@](C)([C@@H]1OC)n1c3ccccc3c3c4c(c5c6ccccc6n2c5c31)C(=O)NC4` [STS, staurosporine, reference compound], for which the “percentage of cells with nuclear condensation, effect of STS” value in the data set on astrocyte cultures (STS 1 μM, 6 h) is “caused an increment in the percentage of cells with nuclear condensation”. In the data set on wild-type astrocytes (STS 1 μM), the “amplitude of [Ca^2+]i plateau” value is 3.52±0.22 ΔF/F0 and the “time to plateau of long-lasting calcium rise” value lay within 75 to 80 min.
Take `NC(C(=O)O)c1cc(O)cc(O)c1` (racemic) [DHPG, (RS)-3,5-dihydroxyphenylglycine, reference compound]: in data set [1] (DHPG 100 μM), the “change of initial [Ca^2+]i transient (ΔF/F0) with respect to wild-type cells” value is listed as −63%, the “peak amplitude of initial DHPG-evoked [Ca^2+]i transient” value is recorded as 0.1±0.08 ΔF/F0 and the “time to plateau of long-lasting [Ca^2+]i rise” value is given as “about 10 min”. In the data set with wild-type astrocytes (DHPG 100 μM), the “average [Ca^2+]i oscillation frequency” value was determined as 17±2.5 mHz and the “peak amplitude of initial DHPG-evoked [Ca^2+]i transient” value is recorded as 0.27±0.18 ΔF/F0. For the same compound, the “mitochondria and cytochrome c, effect of DHPG” value in data set [2] is “causes mitochondrial disarrangement and release of cytochrome c”. Moreover, the “percentage of astrocytes with nuclear condensation and caspase-3 activation, effect of DHPG” value in data set [3] (DHPG 100 μM, compared with wild-type cells) is recorded as “induces an increment”.
Take “H2N-GRKKRRQRRRGGSNRELVVDFLSYKLSQKGYS-COOH (H-GRKKRRQRRRGGSNRELVVDFLSYKLSQKGYS-OH) [TAT-BH4, BH4 domain of Bcl-XL fused via GG to the protein transduction domain of the HIV TAT protein]”: in data set [1] (setting [6]), the “average [Ca^2+]i oscillation frequency after DHPG” value was 14±3.1 mHz; the “percentage of cells in which DHPG evokes a single [Ca^2+]i transient followed by sustained [Ca^2+]i oscillations (pattern as in wild-type)” value was 100% and 99%. The “[Ca^2+]i response to local application of the peptide alone” value in data set [1] (TAT-BH4 0.5 μM, 30 min) was “immediate [Ca^2+]i rise followed by sustained [Ca^2+]i oscillations”. Besides, the “cells with nuclear condensation (apoptotic cells) after STS, effect of peptide” value in the data set with astrocyte cultures (TAT-BH4 0.1 or 0.5 μM 30 min pre-incubation, STS 1 μM 6 h) is listed as “reduced the number of apoptotic cells in a dose-dependent manner; also recorded: potently inhibited in a dose-dependent fashion”. In the data set on hSOD1^G93A mice [4], the “extension of life span” value was determined as 15 days and the “rotarod motor performance compared to saline-treated animals” value is listed as “significantly improves motor performance; also recorded: performed significantly better”. For the same compound, in the data set on hSOD1^G93A mice [4] (n=14), the “age at disease onset (peak body weight)” value worked out at 107.5 ± 1.8 days and the survival time was 138 ± 2.1 days. For the same compound, the “delay of onset of symptoms compared to controls” value in the data set on hSOD1^G93A mice [4] (onset = peak body weight) is listed as 8 days. Moreover, in the data set on wild-type astrocytes (setting [7]), the “change of persistent [Ca^2+]i rise evoked by STS, with respect to STS alone” value was −72% and the “effect on [Ca^2+]i oscillations in STS-treated cells” value is “restored [Ca^2+]i oscillations; also recorded: re-establishment of [Ca^2+]i oscillations”. For the same compound, in the data set on wild-type astrocytes (TAT-BH4 0.5 μM, 30 min), the “[Ca^2+]i response to local application of the peptide alone” value is “immediate [Ca^2+]i rise followed by sustained [Ca^2+]i oscillations”. The “release of cytochrome c / co-localization of Cyt c and SOD2 after DHPG, effect of peptide” value in data set [2] (TAT-BH4 0.5 μM 30 min pre-treatment) is on record as “restores the complete co-localization of the two proteins; also recorded: significant reduction”. Also, in the data set with hSOD1^G93A mice [5] (n=18 fields from three mice), the CD11b-immunopositive microglial cells came to 1040.7±20.4 cells/mm^2 and the “GFAP-positive astrocytes in spinal ventral horns” value was found to be 917.9±33.1 cells/mm^2. In the data set on hSOD1^G93A mice [5] (100 day-old mice), the “change in number of spheroid astrocytes immunopositive for active caspase-3, with respect to saline-treated mice” value is reported as −74%; the “number of caspase-3-positive cells compared to saline” value is “significantly lower”; the “number of motor neurons in spinal cord” value was “preservation of a greater number of motor neurons”. Besides, the “percentage of astrocytes with nuclear condensation and caspase-3 activation after DHPG, effect of peptide” value in data set [3] (TAT-BH4 0.5 μM 30 min pre-treatment, DHPG 100 μM 30 min, 24 hrs recovery) is “significantly reduced; also recorded: significant reduction”.
